{"source": "patent US10406125B2", "about": "“Combination comprising an aminothiolester compound or a pharmaceutically acceptable salt thereof and a compound able to increase the H2O2 level in cancer cells of a subject” (ADVANCED BIODESIGN, priority 2015, dated 2019)", "key": {"[1]": {"tested_on": "H2O2 level in Colo357 cell line", "experiment": "Measurement of H2O2 level in Colo357 cell line (FIG. 8A)", "format": "cell-based", "details": "CPPD 20 μmol·L−1, Doxo 25 μmol·L−1", "quoted_text": "Intracellular H2O2 production in live cells was measured using Total ROS/superoxide detection kit (Enzo life science), following the manufacturer's instructions. The assay uses specific H2O2/RNS probes that upon reaction with H2O2 and RNS species are oxidized rapidly to highly fluorescent compounds. Fluorescence intensity is proportional to the total H2O2/RNS levels within the sample. […] The day before the analysis, cells were seeded in 96-well black/clear bottom plates at a density of 2×10^4 in culture media according to cell suppliers instructions, supplemented with FBS (10% v/v), 10 units of penicillin/ml and 100 mg of streptomycin. Cells were kept at 37° C. in a humid atmosphere of 95% air: 5% CO2 overnight. […] After the incubation period, wells were loaded with 100 μL of H2O2 Detection Solution, containing the respective treatment agent or controls and incubated for 60 min at 37° C. in the dark. Several wells were left without cells for the background fluorescence control measurements. Plates were read using Appliskan fluorescence microplate reader (Thermo Scientific) (ex=560 nm, Em=600). Data are expressed as the change in arbitrary fluorescence units produced from equal amount of cells and normalized to total protein input."}, "Colo357": {"tested_on": "Colo357", "experiment": "Viability of Colo357 cells under combination treatment (FIG. 8B)", "format": "cell-based", "details": "Colo357 (high GSH), combination treatment with S-methyl 4-(dimethylamino)-4-methylpent-2-ynethioate"}, "THP-1": {"tested_on": "THP-1", "experiment": "Cell viability assay (Rezasurin), 96 well format", "format": "cell-based", "details": "Homo sapiens, 48 h"}, "HCC827": {"tested_on": "HCC827", "experiment": "Cell viability assay (Rezasurin), 96 well format", "format": "cell-based", "details": "Homo sapiens, 48 h, DIMATE alone or with PCN 40 μM, read-out: abs.IC50"}, "Hop62": {"tested_on": "Hop62", "experiment": "Cell viability assay (Rezasurin), 96 well format", "format": "cell-based", "details": "Homo sapiens, HOP-62, 48 h, DIMATE alone or with PCN 40 μM, read-out: abs.IC50"}, "HL-60, NT2/D1": {"tested_on": "HL-60, NT2/D1", "experiment": "Quantification of MDA and HNE adducts by ELISA in sensitive cells", "format": "cell-based, human", "details": "5 or 10 μmol·L^−1, 24 hours", "description": "(§1) Quantitative Determination of FINE-Protein and MDA/Protein Adducts by ELISA\n(§2) The formation of HNE-adducts and MDA-adducts was quantified with the Oxiselect HNE Adduct Elisa kit (Cell Biolabs, San Diego, Calif.) and the OxiSelect MDA Adduct ELISA Kit (Cell Biolabs), respectively. Briefly, after a treatment with S-methyl 4-(dimethylamino)-4-methylpent-2-ynethioate during 24 hours, cells were lysed by sonication in reducing SDS Sample Buffer. Homogenates were diluted to 10 μg protein/mL and adsorbed in 96-well protein binding plates by incubation at 37° C. for at least 2 hours. Wells were washed twice with PBS and incubated for an additional 2 hours at room temperature on an orbital shaker. Following three washes in PBS, 100 μL of anti-HNE antibody or anti-MDA antibody were added to the wells and incubated for 1 hour at room temperature. Subsequently, goat anti-rabbit secondary antibody-HRP conjugate (diluted 1/1000 with the assay diluent) was added and incubation continued for 1 hour. Wells were washed five times in PBS and HRP-substrate was added. Reaction was stopped with an acidic solution, and absorbance read on a microplate reader at 450 nm. The level of HNE-adducts and of MDA-adducts was determined by comparison with a standard curve prepared from HNE-BSA and MDA-BSA standards supplied by the manufacturer."}, "MSC": {"tested_on": "MSC", "experiment": "Quantification of MDA and HNE adducts by ELISA in resistant cells", "format": "cell-based", "details": "5 or 10 μmol·L^−1, 24 hours", "description": "as §1, §2"}, "[2]": {"details": "cited from earlier work"}, "H2O2 levels": {"tested_on": "H2O2 levels", "experiment": "Measurement of H2O2 production after cell exposure to pyocianin", "format": "cell-based, human", "details": "pyocianin 40 μM", "description": "Measurement of H2O2 Production\nIntracellular H2O2 production in live cells was measured using Total ROS/superoxide detection kit (Enzo life science), following the manufacturer's instructions. The assay uses specific H2O2/RNS probes that upon reaction with H2O2 and RNS species are oxidized rapidly to highly fluorescent compounds. Fluorescence intensity is proportional to the total H2O2/RNS levels within the sample. […] The day before the analysis, cells were seeded in 96-well black/clear bottom plates at a density of 2×10^4 in culture media according to cell suppliers instructions, supplemented with FBS (10% v/v), 10 units of penicillin/ml and 100 […]. Cells were kept at 37° C. in a humid atmosphere of 95% air: 5% CO2 overnight. On the day of the analysis, cells media was replaced by 100 μL of phenol free-media supplemented as above, without any treatment, with S-methyl 4-(dimethylamino)-4-methylpent-2-ynethioate for 6 hours, vehicle HEPES for 6 hours, or with the different control agents PCN and NAC for 20 min. […] Several wells were left without cells for the background fluorescence control measurements. Plates were read using Appliskan fluorescence microplate reader (Thermo Scientific) (ex=560 nm, Em=600). Data are expressed as the change in arbitrary fluorescence units produced from equal amount of cells and normalized to total protein input."}, "cancer cells": {"tested_on": "cancer cells", "experiment": "Cell viability after exposure to pyocianin", "format": "cell-based, human", "details": "pyocianin 40 μM", "description": "Cells were seeded into 96-well cell culture plates at concentrations required to ensure approximately 80% confluence in control (untreated cells) at the end of experiment (0.5×10^4-5×10^4 cell/well). The sensitivity towards S-methyl 4-(dimethylamino)-4-methylpent-2-ynethioate was determined using different concentrations of the drug (from 0.01 to 100 μM). After 48 hours, the growth-inhibitory effect of the drug was analyzed using Rezasurin, according to manufactures instruction. To ensure good data quality and to minimize impact of pipetting errors, each particular drug concentration was assessed based on mean fluorescence intensity from 8 separate wells. The drug response was quantified by the half maximal inhibitory concentration (IC50) for each particular cell line, and determined by non-linear regression analysis of log-dose/response curves. Cut-off value for resistance to S-methyl 4-(dimethylamino)-4-methylpent-2-ynethioate was determined statistically (>2 S.D. above the IC50 geometric mean). The in-vitro threshold value for hypersensitivity to the drug has been defined as <IC50 geometric mean.\nIn a different experiment, cells showing resistance to S-methyl 4-(dimethylamino)-4-methylpent-2-ynethioate (THP-1, HCC827, and Hop62) were challenged with H2O2 inducer. […]"}}, "note": "pIC50: −log10 of the molar value. Where two headings read alike, the source gives them in different places.", "data": [{"smiles": "COc1cccc2c1C(=O)c1c(O)c3c(c(O)c1C2=O)C[C@@](O)(C(=O)CO)C[C@@H]3O[C@H]1C[C@H](N)[C@H](O)[C@H](C)O1", "note": "[Doxo, Doxorubicin]", "values": [{"measurement": "increase of H2O2 level", "setting": "[1]", "result": "10 000%"}, {"measurement": "effect on viability", "setting": "Colo357", "result": "no effect"}]}, {"smiles": "CSC(=O)C#CC(C)(C)N(C)C", "note": "[DIMATE, S-methyl 4-(dimethylamino)-4-methylpent-2-ynethioate]", "values": [{"measurement": "pIC50", "setting": "THP-1; THP-1, DIMATE alone or with PCN 40 μM, read-out: abs.IC50", "result": 4.34}, {"measurement": "pIC50", "setting": "THP-1; THP-1 resistant cells, DIMATE alone or with H2O2 inducer at fixed concentration (2-ME 100 μM, ATO 1 μM, Daunorubicine 40 nM, Doxorubicine 20 nM, Etoposide 500 nM, Mitoxanthrone 50 nM, Parthenolide 100 nM, Piperlongumine 2 μM), read-out: IC50", "result": 4.34}, {"measurement": "pIC50", "setting": "HCC827", "result": 4.60}, {"measurement": "pIC50", "setting": "Hop62", "result": 4.41}, {"measurement": "HNE-adducts level", "setting": "HL-60, NT2/D1", "result": "> 1 μg per μg of total protein"}, {"measurement": "MDA-adducts level", "setting": "HL-60, NT2/D1", "result": "above 100 ng per μg of total protein"}, {"measurement": "HNE-adducts level", "setting": "MSC", "result": "< 1 μg per μg of total protein"}, {"measurement": "MDA-adducts level", "setting": "MSC", "result": "< 100 ng per μg of total protein"}]}, {"smiles": "CC(=O)N[C@@H](CS)C(=O)O", "note": "[NAC, N-acetyl-L-cysteine]", "values": [{"measurement": "rate constant, scavenging of hydroxy radicals", "setting": "[2]; hydroxy radicals", "result": "1.36×10^10 M^−1,s^−1"}, {"measurement": "reaction with superoxide anion", "setting": "[2]; superoxide anion", "result": "no reaction"}]}, {"smiles": "Cn1c2cccc(=O)c-2nc2ccccc21", "note": "[pyocianin, pyocyanin]", "values": [{"measurement": "increase in H2O2 levels", "setting": "H2O2 levels", "result": "two-fold increase"}, {"measurement": "effect on cell viability", "setting": "cancer cells", "result": "without affecting cell viability"}]}, {"smiles": "N.N.[Cl][Pt][Cl]", "note": "[CPPD, Cisplatin]", "values": [{"measurement": "increase of H2O2 level", "setting": "[1]", "result": 200, "unit": "%"}, {"measurement": "effect on viability", "setting": "Colo357", "result": "no effect"}]}]}
